Source: ChEMBL document CHEMBL4765469, “2-((3,5-Dinitrobenzyl)thio)quinazolinones: Potent Antimycobacterial Agents Activated by Deazaflavin (F)-Dependent Nitroreductase (Ddn)” (J Med Chem, 2021)
≈ marks a conversion by molar mass, not a printed value. Calls of active or inactive are those of the source. The calls are words filed in the database; no cut-off is given here.

Key:
[1] = tested on: Mycobacterium tuberculosis; test: Antitubercular activity against Mycobacterium tuberculosis T2 expressing nitroreductase rv3547 A76E mutant assessed as inhibition of all visible growth grown under 7H9/ glucose liquid culture incubated for 7 to 14 days; assay type: functional; details: time 7-14 day
[2] = tested on: Mycobacterium tuberculosis; test: Antitubercular activity against Mycobacterium tuberculosis T3 with fgd mutant deficient in F420 reduction assessed as inhibition of all visible growth grown under 7H9/ glucose liquid culture incubated for 7 to 14 days; assay type: functional; details: time 7-14 day
[3] = tested on: Mycobacterium tuberculosis; test: Antitubercular activity against Mycobacterium tuberculosis 5A1 with fbiC mutant deficient in cofactor F420 biosynthesis assessed as inhibition of all visible growth grown under 7H9/ glucose liquid culture incubated for 7 to 14 days; assay type: functional; details: time 7-14 day
[4] = tested on: Mycobacterium tuberculosis; test: Antitubercular activity against Mycobacterium tuberculosis resistant mutants generated by plating on 7H11/0ADC agar plates in presence of 3.75 to 15 uM 2-((3,5-Dinitrobenzyl)thio)quinazolin-4(3H)-one followed by sensitivity testing; assay type: functional, organism-based
[5] = Ratio of MIC for antitubercular activity against Mycobacterium tuberculosis resistant mutants generated by plating on 7H11/0ADC agar plates in presence of 3.75 to 15 uM 2-((3,5-Dinitrobenzyl)thio)quinazolin-4(3H)-one to MIC for antitubercular activity against wild type Mycobacterium tuberculosis H37Rv ATCC 27294; assay type: functional

SMILES | MIC>99 [1] | MIC>99 [2] | MIC>99 [3] | Activity [4] | Ratio [5]
O=c1[nH]c(SCc2cc([N+](=O)[O-])cc([N+](=O)[O-])c2)nc2ccc(F)cc12 | >=50 uM | >=50 uM | >50 µM |  | 
O=c1[nH]c(SCc2cc([N+](=O)[O-])cc([N+](=O)[O-])c2)nc2ccc(Br)cc12 | >50 µM | >50 µM | >50 µM |  | 
O=c1[nH]c(SCc2cc([N+](=O)[O-])cc([N+](=O)[O-])c2)nc2ccc(N3CCOCC3)cc12 | 19 µM (≈ 8.43 µg/mL) | >=50 uM | >=50 uM |  | 
CO[C@H]1/C=C/O[C@@]2(C)Oc3c(C)c(O)c4c(O)c(c(/C=N/N5CCN(C)CC5)c(O)c4c3C2=O)NC(=O)/C(C)=C\C=C\[C@H](C)[C@H](O)[C@@H](C)[C@@H](O)[C@@H](C)[C@H](OC(C)=O)[C@@H]1C |  |  |  | Active | 
O=[N+]([O-])c1cn2c(n1)OC[C@@H](OCc1ccc(OC(F)(F)F)cc1)C2 |  |  |  | inactive | 
C[C@]1(COc2ccc(N3CCC(Oc4ccc(OC(F)(F)F)cc4)CC3)cc2)Cn2cc([N+](=O)[O-])nc2O1 |  |  |  | inactive | 
CN1CCN(c2ccc3nc(SCc4cc([N+](=O)[O-])cc([N+](=O)[O-])c4)[nH]c(=O)c3c2)CC1 | 37 µM (≈ 16.9 µg/mL) | 25 µM (≈ 11.4 µg/mL) | 37 µM (≈ 16.9 µg/mL) |  | 
O=c1[nH]c(SCc2cc([N+](=O)[O-])cc([N+](=O)[O-])c2)nc2cccnc12 | 50 µM (≈ 18 µg/mL) | 37 µM (≈ 13.3 µg/mL) | 37 µM (≈ 13.3 µg/mL) |  | 
NNC(=O)c1ccncc1 |  |  |  | Active | 
O=c1[nH]c(SCc2cc([N+](=O)[O-])cc([N+](=O)[O-])c2)nc2ccccc12 | 37 µM (≈ 13.3 µg/mL) | 37 µM (≈ 13.3 µg/mL) | >50 µM |  | > 40
Cc1ccc2nc(SCc3cc([N+](=O)[O-])cc([N+](=O)[O-])c3)[nH]c(=O)c2c1 | >50 µM | >50 µM | >50 µM |  | 
